# Reference: PubChem BioAssay AID1963960 (Molecular Pharmacology Branch, DTP, NCI, 2024)
# Test system: MDA-MB-468 spheroids with HUVEC/MSC, viability
# Assay: Anticancer human tumor MDA-MB-468 cell line growth inhibition [PI3K];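 further: spheroids exposed to agents for seven days before readout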;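 on viability, T/C: 100% = DMSO vehicle control viability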
# Conditions: for IC50: curve of first compound; for viability, T/C: stronger effect = lower value
# In short: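 Spheroid viability read-out. Co-cultures contained the tumor line plus HUVEC and human MSCs. Each agent was paired with a PI3K inhibitor (inavolisib, alpelisib, duvelisib, copanlisib) across half-log dilutions starting at clinical Cmax, or at 10 microM when Cmax was unknown.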
# [1] = second compound 0.0316 µM, first compound 0.0316 µM
# [2] = second compound 0.0316 µM, first compound 0.1 µM
# [3] = second compound 0.1 µM, first compound 0.0316 µM
# [4] = second compound 0.1 µM, first compound 0.1 µM
# [5] = second compound 0.316 µM, first compound 0.0316 µM
# [6] = second compound 0.316 µM, first compound 0.1 µM
# [7] = second compound 1 µM, first compound 0.0316 µM
# [8] = second compound 1 µM, first compound 0.1 µM
# [9] = second compound 3.16 µM, first compound 0.0316 µM
# [10] = second compound 3.16 µM, first compound 0.1 µM
# [11] = second compound 10 µM, first compound 0.0316 µM
# [12] = second compound 10 µM, first compound 0.1 µM
compound,measurement,setting,value
C[C@@H](NC(=O)c1ncnc(N)c1Cl)c1ncc(C(=O)Nc2cc(C(F)(F)F)c(Cl)cn2)s1 + CC(Nc1ncnc2nc[nH]c12)c1cc2cccc(Cl)c2c(=O)n1-c1ccccc1,IC50,second compound 0.0316 µM,> 10000 nM
same,IC50,second compound 0.1 µM,> 10000 nM
same,IC50,second compound 0.316 µM,> 10000 nM
same,IC50,second compound 1 µM,> 10000 nM
same,IC50,second compound 3.16 µM,> 10000 nM
same,IC50,second compound 10 µM,< 31.6 nM
same,"viability, T/C",[1],107%
same,"viability, T/C",[2],114%
same,"viability, T/C","second compound 0.0316 µM, first compound 0.316 µM",92.5%
same,"viability, T/C","second compound 0.0316 µM, first compound 1 µM",109%
same,"viability, T/C","second compound 0.0316 µM, first compound 3.16 µM",91.3%
same,"viability, T/C","second compound 0.0316 µM, first compound 10 µM",94.9%
same,"viability, T/C",[3],83%
same,"viability, T/C",[4],94.3%
same,"viability, T/C","second compound 0.1 µM, first compound 0.316 µM",93.3%
same,"viability, T/C","second compound 0.1 µM, first compound 1 µM",89%
same,"viability, T/C","second compound 0.1 µM, first compound 3.16 µM",93.5%
same,"viability, T/C","second compound 0.1 µM, first compound 10 µM",83.7%
same,"viability, T/C",[5],84.8%
same,"viability, T/C",[6],76.8%
same,"viability, T/C","second compound 0.316 µM, first compound 0.316 µM",83.1%
same,"viability, T/C","second compound 0.316 µM, first compound 1 µM",82%
same,"viability, T/C","second compound 0.316 µM, first compound 3.16 µM",75.5%
same,"viability, T/C","second compound 0.316 µM, first compound 10 µM",83.7%
same,"viability, T/C",[7],70%
same,"viability, T/C",[8],65.8%
same,"viability, T/C","second compound 1 µM, first compound 0.316 µM",75.3%
same,"viability, T/C","second compound 1 µM, first compound 1 µM",81.8%
same,"viability, T/C","second compound 1 µM, first compound 3.16 µM",75.2%
same,"viability, T/C","second compound 1 µM, first compound 10 µM",64.5%
same,"viability, T/C",[9],61.8%
same,"viability, T/C",[10],60.2%
same,"viability, T/C","second compound 3.16 µM, first compound 0.316 µM",63.7%
same,"viability, T/C","second compound 3.16 µM, first compound 1 µM",55.7%
same,"viability, T/C","second compound 3.16 µM, first compound 3.16 µM",61.8%
same,"viability, T/C","second compound 3.16 µM, first compound 10 µM",58.9%
same,"viability, T/C",[11],42.3%
same,"viability, T/C",[12],40.6%
same,"viability, T/C","second compound 10 µM, first compound 0.316 µM",46.1%
same,"viability, T/C","second compound 10 µM, first compound 1 µM",53%
same,"viability, T/C","second compound 10 µM, first compound 3.16 µM",41.7%
same,"viability, T/C","second compound 10 µM, first compound 10 µM",39.2%
Cn1ncnc1[C@H]1c2n[nH]c(=O)c3cc(F)cc(c23)N[C@@H]1c1ccc(F)cc1 + CC(Nc1ncnc2nc[nH]c12)c1cc2cccc(Cl)c2c(=O)n1-c1ccccc1,IC50,second compound 0.0316 µM,> 100 nM
same,IC50,second compound 0.1 µM,> 100 nM
same,IC50,second compound 0.316 µM,96.2 nM
same,IC50,second compound 1 µM,72.5 nM
same,IC50,second compound 3.16 µM,37 nM
same,IC50,second compound 10 µM,< 0.316 nM
same,"viability, T/C","second compound 0.0316 µM, first compound 0.000316 µM",84.5%
same,"viability, T/C","second compound 0.0316 µM, first compound 0.001 µM",90.7%
same,"viability, T/C","second compound 0.0316 µM, first compound 0.00316 µM",86.9%
same,"viability, T/C","second compound 0.0316 µM, first compound 0.01 µM",78.1%
same,"viability, T/C",[1],68.1%
same,"viability, T/C",[2],51.2%
same,"viability, T/C","second compound 0.1 µM, first compound 0.000316 µM",78.3%
same,"viability, T/C","second compound 0.1 µM, first compound 0.001 µM",95.1%
same,"viability, T/C","second compound 0.1 µM, first compound 0.00316 µM",85%
same,"viability, T/C","second compound 0.1 µM, first compound 0.01 µM",66%
same,"viability, T/C",[3],65.3%
same,"viability, T/C",[4],51.7%
same,"viability, T/C","second compound 0.316 µM, first compound 0.000316 µM",73.2%
same,"viability, T/C","second compound 0.316 µM, first compound 0.001 µM",74.5%
same,"viability, T/C","second compound 0.316 µM, first compound 0.00316 µM",73%
same,"viability, T/C","second compound 0.316 µM, first compound 0.01 µM",69.9%
same,"viability, T/C",[5],64%
same,"viability, T/C",[6],49.5%
same,"viability, T/C","second compound 1 µM, first compound 0.000316 µM",59.3%
same,"viability, T/C","second compound 1 µM, first compound 0.001 µM",74%
same,"viability, T/C","second compound 1 µM, first compound 0.00316 µM",60.1%
same,"viability, T/C","second compound 1 µM, first compound 0.01 µM",64.5%
same,"viability, T/C",[7],57.8%
same,"viability, T/C",[8],46.8%
same,"viability, T/C","second compound 3.16 µM, first compound 0.000316 µM",55.5%
same,"viability, T/C","second compound 3.16 µM, first compound 0.001 µM",52.1%
same,"viability, T/C","second compound 3.16 µM, first compound 0.00316 µM",53.4%
same,"viability, T/C","second compound 3.16 µM, first compound 0.01 µM",52.8%
same,"viability, T/C",[9],51.9%
same,"viability, T/C",[10],38.7%
same,"viability, T/C","second compound 10 µM, first compound 0.000316 µM",39.4%
same,"viability, T/C","second compound 10 µM, first compound 0.001 µM",37.8%
same,"viability, T/C","second compound 10 µM, first compound 0.00316 µM",40.6%
same,"viability, T/C","second compound 10 µM, first compound 0.01 µM",36.9%
same,"viability, T/C",[11],35.2%
same,"viability, T/C",[12],26.9%
